Data as given in patent publication US20200190593A1, “SPLICEOSOME MUTATIONS AND USES THEREOF” (EISAI R&D MANAGEMENT CO., LTD., priority 2017, published 2020).
“Also recorded” adds a separate entry of the source.

Tests used:
HCT116 cells = assay: CellTiter-Glo growth inhibition, parental HCT116; type: cell-based; settings: in HCT116
Description: Parental HCT116 cells were obtained from ATCC and cultured in RPMI 1640 medium (Thermo Fisher, GIBCO #11875) supplemented with 10% FBS. Parental Panc0504 cells were obtained from ATCC and cultured in GIBCO RPMI 1640 medium (Thermo Fisher, GIBCO #11875) supplemented with glucose (to 4.5 g/L final), HEPES (10 mM final), sodium pyruvate (1 mM final), human insulin (10 μg/ml final) and 15% FBS. Cell line authentication was achieved by genetic profiling using polymorphic short tandem repeat (STR) loci (ATCC). All cell lines were free of mycoplasma contamination. Lenti-X-293T cells (Clontech Laboratories, Inc. Cat #632180), a cell line for lentiviral packaging, was maintained in Dulbecco's modified Eagle's medium (Thermo Fisher, GIBCO #11965) containing 10% fetal bovine serum and 4 mM L-glutamine. WT PHF5A cDNA was obtained from Genecopoeia and cloned into a pDONR 221 vector (Thermo Fisher). Sequence verified positive clones were cloned into pLenti6.3N5 vector (Thermo Fisher) through LR recombination. Mutagenesis of Y36 and V37 were carried using Agilent Quickchange II kit following manufacturer's recommendation using the PHF5A WT plasmid. All primers used for mutagenesis were designed used the QuikChange Primer Design tool by Agilent. Verified positive clones of PHF5A Y36 or V37 variants were used for lentivirus production using X293T cells. Parental HCT116 cells and Panc0504 cells were then infected with virus containing medium and selected with Blasticidin S (Thermo Fisher) at 10 μg/ml for one week. Engineered cell lines were maintained in the same medium without antibiotics. The following primary antibodies were used at 1:1000 dilution for western blot analysis in LI-COR buffer (LI-COR): α-SF3B1 mouse monoclonal antibody (MBL, D221-3), α-SF3B3 rabbit polyclonal antibody (Protein Tech, 14577-1-AP), α-SF3B4 goat polyclonal antibody (Santa Cruz, 14276), α-SF3B6/p14 rabbit polyclonal antibody (Protein Tech, 12379-1-AP), α-PHF5A rabbit polyclonal antibody (Protein Tech, 15554-1-AP). α-GAPDH rabbit polyclonal antibody (Sigma, G9545) was used at 1:10,000. […]
(§1) For CellTiter-Glo analysis, 500 cells were seeded in each well of a 384-well plate the day before compound addition. […] 72 hours post compound addition; CellTiter-Glo reagent was added to the medium, incubated and assayed on EnVision Multilabel Reader (PerkinElmer). The luminescence value from each treatment sample was normalized to the average value of the respective DMSO control. […] For heatmap summarization of IC50 shifts, IC50 value were extracted from dosage response curves and the fold changes of IC50 values in PHF5A variants expressing lines over that of the WT lines were calculated and plotted using TIBCO Spotfire software. […]

[1] = test system: HCT116 resistant clones carrying SF3B1 (R1074H, V1078A/I) or PHF5A Y36C mutations; assay: CellTiter-Glo growth inhibition profiling of E7107/herboxidiene resistant HCT116 clones; type: cell-based; settings: 72 hour CellTiter-Glo, HCT116 resistant clones vs parental
Description: 2.5 million HCT116 cells were seeded in each 10 cm dish and treated with indicated dosages of splicing modulators for 2 weeks. Compounds were refreshed every 4 days. When needed, confluent dishes were split 1:3 and cells were allowed to recover overnight without splicing modulator treatment after re-seeding. At the end of the compound selection period, surviving individual clones were picked and transferred to 12-well plates. Individual resistant clones were further expanded without splicing modulator treatment and 1 million cells from each clone were pelleted for genomic DNA extraction using the DNeasy Blood & Tissue Kit from Qiagen. Whole exome sequencing (WXS) libraries were generated by Novogene Corporation using Agilent SureSelect Human All Exon V6 kit and sequenced on Illumina HiSeq platform. 12G raw data were gathered for each sample. WXS reads were then aligned to hg19 by BWA-MEM (Shi et al., Nature biotechnology 33, 661-7 (2015)) and somatic mutations were identified with MuTect2 (Schenone et al., Nature chemical biology 9, 232-40 (2013)) through Sentieon pipeline (Wacker et al., Nature chemical biology 8, 235-7 (2012)) by pairing resistant clone with parental cell lines. As the resistant clones for WXS were selected, the allele frequencies for the mutations which are responsible for the resistance should be high. Non-silent mutations (among the H3 curated spliceosome genes) with allele frequency higher than 0.2 were focused on.
For CellTiter-Glo analysis, 500 cells were seeded in each well of a 384-well plate the day before compound addition. An 11 part serial dilution was used starting with a top final dosage of 10 μM for ten additional doses. DMSO percentage was maintained throughout and a DMSO only control was included. 72 hours post compound addition; CellTiter-Glo reagent was added to the medium, incubated and assayed on EnVision Multilabel Reader (PerkinElmer). The luminescence value from each treatment sample was normalized to the average value of the respective DMSO control. The dosage response curve plots were generated using Graphpad Prism 6 and fit using nonlinear regression analysis and the log (inhibitor) vs. response—Variable slope (four parameters). For heatmap summarization of IC50 shifts, IC50 value were extracted from dosage response curves and the fold changes of IC50 values in PHF5A variants expressing lines over that of the WT lines were calculated and plotted using TIBCO Spotfire software. For IC50s greater than the top dosage, the values were arbitrarily set at 10 μM. Unsupervised clustering analysis was performed in TIBCO Spotfire using the following default parameters: Clustering method: UPGMA; Distance measure: Euclidean; Ordering weight: Average value; Normalization: (None); Empty value replacement: Constant value: 0.

[2] = test system: global splicing in PHF5A Y36C expressing HCT116 cells; assay: Whole transcriptome RNA-seq differential splicing, PHF5A Y36C cells; type: cell-based
Description: Either PHF5A WT or Y36C mutant overexpressing cells were treated with either DMSO or E7107 (100 nM and 10 μM) for 6 hours in quintuplicate before lysed in TRIzol reagent (Thermo Fisher). After phase separation, top aqueous phase was further processed using MagMAX™-96 Total RNA Isolation Kit (Thermo Fisher, AM1830) for RNA extraction. RNA quality was assessed using Agilent tapestation with RNA screen tape. RNA-seq libraries were prepared by Beijing Genomic Institute (BGI) and sequenced on Illumina Hiseq 4000 for 6G clean reads per sample. RNA-seq reads were aligned to hg19 by STAR (Dobin et al., Bioinformatics 29, 15-21 (2013)) and raw junction counts generated by STAR were used for calculating percent spliced in (PSI) to quantify splice junction usage relative to all other splice junctions that share the same splice site as described before (Darman et al., Cell reports 13, 1033-45 (2015)). Differential PSI were assessed between a pair of sample groups using moderated t-test defined in limma package (Smyth, Statistical applications in genetics and molecular biology 3, Article3 (2004)) in Bioconductor. The statistical p-values were corrected using the Benjamini-Hochberg procedure and q-values less than or equal to 0.05 were considered statistically significant. […]

[3] = test system: MCL1 splicing (ES/IR events) in PHF5A WT expressing HCT116 cells; assay: Taqman gene expression analysis of MCL1 isoforms, PHF5A WT cells; type: cell-based; settings: 4 hour treatment
Description: (§2) 8000 cells of indicated genotypes were seeded in each well of 96-well plate and allowed to settle overnight. On the second day, 11 points serial dilution (1:4 fold dilution across) of indicated compound with a top dosage of 10 μM final was added to the culturing medium. 4 hour post compound addition, culturing medium was decanted and washed once with PBS. PBS was then decanted completely from the plate and Lysis buffer (plus DNase I) from TaqMan Gene Expression Cells-to-CT Kit (Thermo Fisher, cat # AM1729) was added according to the manual. After 5 mins incubation at room temperature on the shaker, stop solution was added to each well and incubated for 2 min. Reverse transcription was set up immediately using the Cells-to-CT Kit and cDNAs were used for quantitative real time PCR analysis using Viia7 (Thermo Fisher). Each reaction is multiplexed with a FAM labelled probe targeting specific target gene splicing isoforms and a VIC labelled probe targeted 18S rRNA as loading control. Therefore, the FAM Ct value in each well was first normalized to the VIC Ct value in the same well before further normalization to the FAM/VIC ratio of DMSO treated control samples to calculate fold change over DMSO. Graphs were generated using Graphpad Prism 6, n=2. Taqman gene expression probes used in these assays are: […]

[4] = test system: global splicing in PHF5A WT expressing HCT116 cells; assay: Whole transcriptome RNA-seq differential splicing, PHF5A WT cells; type: cell-based
Description: Either PHF5A WT or Y36C mutant overexpressing cells were treated with either DMSO or E7107 (100 nM and 10 μM) for 6 hours in quintuplicate before lysed in TRIzol reagent (Thermo Fisher). After phase separation, top aqueous phase was further processed using MagMAX™-96 Total RNA Isolation Kit (Thermo Fisher, AM1830) for RNA extraction. RNA quality was assessed using Agilent tapestation with RNA screen tape. RNA-seq libraries were prepared by Beijing Genomic Institute (BGI) and sequenced on Illumina Hiseq 4000 for 6G clean reads per sample. RNA-seq reads were aligned to hg19 by STAR (Dobin et al., Bioinformatics 29, 15-21 (2013)) and raw junction counts generated by STAR were used for calculating percent spliced in (PSI) to quantify splice junction usage relative to all other splice junctions that share the same splice site as described before (Darman et al., Cell reports 13, 1033-45 (2015)). Differential PSI were assessed between a pair of sample groups using moderated t-test defined in limma package (Smyth, Statistical applications in genetics and molecular biology 3, Article3 (2004)) in Bioconductor. The statistical p-values were corrected using the Benjamini-Hochberg procedure and q-values less than or equal to 0.05 were considered statistically significant. Gene IDs associated with significant splicing changes upon E7107 treatment as compared to DMSO in either PHF5A WT or Y36C cells were used for generation of the Venn Diagram using online tool (http://bioinformatics.psb.ugent.be/webtools/Venn/). PHF5A WT or Y36C specific genes identified from the Venn Diagram analysis were then subject to Gene Set Enrichment Analysis (GSEA) (http://software.broadinstitute.org/gsea/msigdb/annotate.jsp) using the Kyoto Encyclopedia of Genes and Genomes (KEGG) pathway database.
The number of reads which cover the splice junction which excludes a given cassette exon (exon skipping reads) were compared with both the number of spliced reads which share its 3′ splice site yet have an alternative 5′ splice site bordering the cassette exon (exon inclusion reads) and the number of reads which cross the exon-intron boundary at that same 3′ splice site (intron retention reads.) These counts were summed and their fractions from the percent spliced in (PSI) for the exon skipping event, the exon inclusion event, and the intron retention event, respectively, at that locus. The PSI for all significant exon skipping events derived from the comparison between 100 nM E7107 treatment in PHF5A Y36C cells and the respective DMSO controls (3883 events) and the PSI for the intron retention junction at the same locus were plotted. For all other treatments, the PSI of the exon skipping junction and the intron retention junction for each locus were plotted in the same order. PSI is averaged over samples in quintuplicate.

[5] = test system: PHF5A Y36C over-expressing PANC0504 cells; assay: Growth inhibition in PANC0504 cells over-expressing PHF5A Y36C; type: cell-based
Description: Parental HCT116 cells were obtained from ATCC and cultured in RPMI 1640 medium (Thermo Fisher, GIBCO #11875) supplemented with 10% FBS. Parental Panc0504 cells were obtained from ATCC and cultured in GIBCO RPMI 1640 medium (Thermo Fisher, GIBCO #11875) supplemented with glucose (to 4.5 g/L final), HEPES (10 mM final), sodium pyruvate (1 mM final), human insulin (10 μg/ml final) and 15% FBS. Cell line authentication was achieved by genetic profiling using polymorphic short tandem repeat (STR) loci (ATCC). All cell lines were free of mycoplasma contamination. […]
as §1

SF3B1 R1074H = target: T1, SF3B1 R1074H (Homo sapiens, UniProt O75533+Q7RTV0, R1074H); settings: Yokoi et al. 2011; cited from earlier work
T1 construct: endogenous in cells; WiDr clones in the cited Yokoi et al. work

[6] = test system: MCL1 splicing (ES/IR events) in PHF5A Y36C expressing HCT116 cells; assay: Taqman gene expression analysis of MCL1 isoforms, PHF5A Y36C cells; type: cell-based; settings: PHF5A-Y36C cells compared to WT, increasing dosage
Description: as §2

Molecule | GI50 (HCT116 cells) | resistance conferred by mutations in resistant clones (growth inhibition profiling) [1] | differential splicing events vs DMSO ([2]; 100 nM E7107) | MCL1 isoform events in RNA-seq sashimi plots ([2]; E7107 treatment) | GI50 (HCT116 cells; Homo sapiens, HCT-116) | dose-dependent induction of MCL1 ES and IR events [3] | number of introns with induced aberrant splicing ([4]; E7107, FIG. 4A) | number of the 3883 Y36C related ES junctions showing reduced ES PSI and increased IR PSI in WT cells ([4]; E7107 treated WT vs Y36C cells) | share of Y36C related ES junctions showing reduced ES PSI and increased IR PSI in WT cells ([4]; E7107 treated WT vs Y36C cells) | differential splicing events vs DMSO ([4]; PHF5A WT cells, 100 nM E7107) | MCL1 isoform events in RNA-seq sashimi plots ([4]; PHF5A WT cells, E7107 treatment) | resistant phenotype upon PHF5A Y36C over-expression [5] | effect of SF3B1 R1074H substitution on compound activity (SF3B1 R1074H) | MCL1-S production (ES events) [6]
CO[C@]1(C)C[C@@]2(CO2)[C@H](O)[C@@H](/C=C/C(C)=C/C[C@@H]2O[C@H](C)[C@H](NC(=O)/C=C\[C@H](C)OC(C)=O)C[C@@H]2C)O1 [spliceostatin A] | 0.76 nM | SF3B1-R1074H mutation also conferred better resistance; also recorded: show resistance to the Y36C clone | – | – | – | – | – | – | – | – | – | – | – | –
CC[C@H](O)[C@@H](C)[C@H]1O[C@@H]1C[C@@](C)(O)/C=C/C=C(\C)C1OC(=O)C[C@H](O)CC[C@@](C)(O)[C@@H](OC(=O)N2CCN(C3CCCCCC3)CC2)/C=C/[C@@H]1C (stereo partly shown) [Compound E7107] | – | SF3B1-R1074H mutation conferred the most robust resistance | the overall amount of IR events and their average fold change were greatly reduced; also recorded: the number of compound induced exon-skipping (ES) events was increased | mainly ES events were observed yielding the MCL1-S form | 1.5 nM | “earlier” induction of MCL1 ES events than IR events at lower doses | approximately 20,000 | 2470 | ~64% | intron-retention (IR) events were predominant | IR was the dominant event observed | partial resistant phenotype | almost completely abolishes the splicing-modulating and anti-proliferative effects | enhanced to a higher level
sudemycin D6 | – | show resistance to the Y36C clone | – | – | – | – | – | – | – | – | – | – | – | –
